Test results: article PMC10759180 (RSC Advances, 2024)
Entries after “also recorded” stand apart in the source; their conditions may differ. Values belong to the compound of their own block, whether it stands above or below them.

Columns and labels:
α-amylase = assay: In vitro α-amylase inhibition assay; assay type: biochemical; conditions: read-out: α-Amylase activity IC50 ± SEM; mean ± SEM, triplicate; iodine starch method, pH 6.8, 50 °C, 30 minutes
Escherichia coli = assay: Antibacterial disc diffusion assay, Escherichia coli; assay type: cell-based; conditions: for Antibacterial zone of inhibition, Escherichia coli: disc diffusion, samples 100 μM, kanamycin 10 μM, 24 hours at 37 °C
Staphylococcus aureus = assay: Antibacterial disc diffusion assay, Staphylococcus aureus; assay type: cell-based; conditions: for Antibacterial zone of inhibition, Staphylococcus aureus: disc diffusion, samples 100 μM, kanamycin 10 μM, 24 hours at 37 °C
Pseudomonas aeruginosa = assay: Antibacterial disc diffusion assay, Pseudomonas aeruginosa; assay type: cell-based; conditions: samples 100 μM, kanamycin 10 μM, 24 hours at 37 °C
Bacillus subtilis = assay: Antibacterial disc diffusion assay, Bacillus subtilis; assay type: cell-based; conditions: samples 100 μM, kanamycin 10 μM, 24 hours at 37 °C
Candida albicans = assay: Antifungal disc diffusion assay, Candida albicans; assay type: cell-based; conditions: read-out: Antifungal zone of inhibition, Candida albicans
urease = urease (Canavalia ensiformis, UniProt P07374); conditions: read-out: Urease activity IC50 ± SEM; pH 8.2
Sequence of urease (P07374 whole entry, looked up): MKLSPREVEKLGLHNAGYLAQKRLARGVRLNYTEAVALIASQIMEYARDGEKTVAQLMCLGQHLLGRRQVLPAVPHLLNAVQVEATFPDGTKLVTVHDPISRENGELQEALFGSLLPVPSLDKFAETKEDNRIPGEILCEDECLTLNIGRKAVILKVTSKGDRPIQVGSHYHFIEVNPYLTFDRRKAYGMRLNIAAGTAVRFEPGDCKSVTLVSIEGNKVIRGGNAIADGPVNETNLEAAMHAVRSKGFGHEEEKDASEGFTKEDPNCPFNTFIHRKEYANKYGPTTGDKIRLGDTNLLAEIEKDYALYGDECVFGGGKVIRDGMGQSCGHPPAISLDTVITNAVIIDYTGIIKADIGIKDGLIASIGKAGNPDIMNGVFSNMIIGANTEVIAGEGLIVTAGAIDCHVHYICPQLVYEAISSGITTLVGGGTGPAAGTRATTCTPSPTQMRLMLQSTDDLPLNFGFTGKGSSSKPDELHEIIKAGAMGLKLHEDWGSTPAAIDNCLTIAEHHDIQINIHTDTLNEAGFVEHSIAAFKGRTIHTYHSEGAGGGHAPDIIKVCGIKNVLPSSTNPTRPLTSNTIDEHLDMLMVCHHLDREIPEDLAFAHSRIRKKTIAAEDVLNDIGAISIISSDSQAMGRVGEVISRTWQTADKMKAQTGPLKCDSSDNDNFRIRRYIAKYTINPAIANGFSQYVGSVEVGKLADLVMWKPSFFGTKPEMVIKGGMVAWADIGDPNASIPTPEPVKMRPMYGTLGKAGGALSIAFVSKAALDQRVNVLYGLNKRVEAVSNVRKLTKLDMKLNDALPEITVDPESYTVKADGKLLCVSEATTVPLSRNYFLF

IC50 (α-amylase): 118.4 ± 0.64 µM
Compound: Cc1ccc(C(=O)N(C(=O)c2ccc(C)cc2)C(=S)N2N=C(c3ccc(F)cc3)CC2c2ccc(F)cc2)cc1 (stereo not shown) [Compound 5a, N-(3,5-Bis(4-fluorophenyl)-4,5-dihydro-1H-pyrazole-1-carbonothioyl)-4-methyl-N-(4-methylbenzoyl)benzamide]

IC50 (α-amylase): 99.3 ± 0.62 µM
Compound: Cc1ccc(C(=O)N(C(=O)c2ccc(C)cc2)C(=S)N2N=C(c3ccc(F)cc3)CC2c2cccc(F)c2)cc1 (stereo not shown) [Compound 5b, N-(5-(3-Fluorophenyl)-3-(4-fluorophenyl)-4,5-dihydro-1H-pyrazole-1-carbonothioyl)-4-methyl-N-(4-methylbenzoyl)benzamide]

IC50 (α-amylase): 104 ± 3.18 µM
Compound: Cc1ccc(C(=O)N(C(=O)c2ccc(C)cc2)C(=S)N2N=C(c3ccccc3)CC2c2ccc(F)cc2)cc1 (stereo not shown) [Compound 5d, N-(5-(4-Fluorophenyl)-3-phenyl-4,5-dihydro-1H-pyrazole-1-carbonothioyl)-4-methyl-N-(4-methylbenzoyl)benzamide]
zone of inhibition at 100 µM (Escherichia coli; Escherichia coli, 24 h, read-out: Antibacterial zone of inhibition, Escherichia coli): 7 mm | Antibacterial zone of inhibition, Escherichia coli (Escherichia coli): significant antibacterial activity; also recorded: excellent bacterial inhibition zone | zone of inhibition at 100 µM (Staphylococcus aureus; Staphylococcus aureus, 24 h, read-out: Antibacterial zone of inhibition, Staphylococcus aureus): 10 mm | Antibacterial zone of inhibition, Staphylococcus aureus (Staphylococcus aureus): significant antibacterial activity; also recorded: excellent bacterial inhibition zone

IC50 (α-amylase): 97.4 ± 1.53 µM
Compound: Cc1ccc(C(=O)N(C(=O)c2ccc(C)cc2)C(=S)N2N=C(c3ccc(Br)cc3)CC2c2ccc(F)cc2)cc1 (stereo not shown) [Compound 5e, N-(3-(4-Bromophenyl)-5-(4-fluorophenyl)-4,5-dihydro-1H-pyrazole-1-carbonothioyl)-4-methyl-N-(4-methylbenzoyl)benzamide]

IC50 (α-amylase): 90.3 ± 1.08 µM
Compound: Cc1ccc(C(=O)N(C(=O)c2ccc(C)cc2)C(=S)N2N=C(c3ccc(Br)cc3)CC2c2cccc(F)c2)cc1 (stereo not shown) [Compound 5f, N-(3-(4-Bromophenyl)-5-(3-fluorophenyl)-4,5-dihydro-1H-pyrazole-1-carbonothioyl)-4-methyl-N-(4-methylbenzoyl)benzamide]

IC50 (α-amylase): 131 ± 1.56 µM
Compound: Cc1ccc(C(=O)N(C(=O)c2ccc(C)cc2)C(=S)N2N=C(c3ccc(Cl)cc3)CC2c2ccc(Cl)cc2)cc1 (stereo not shown) [Compound 5g, N-(3,5-Bis(4-chlorophenyl)-4,5-dihydro-1H-pyrazole-1-carbonothioyl)-4-methyl-N-(4-methylbenzoyl)benzamide]

IC50 (α-amylase): 121 ± 3.75 µM
Compound: Cc1ccc(C(=O)N(C(=O)c2ccc(C)cc2)C(=S)N2N=C(c3ccccc3)CC2c2ccc(C)cc2)cc1 (stereo not shown) [Compound 5h, 4-Methyl-N-(4-methylbenzoyl)-N-(3-phenyl-5-(p-tolyl)-4,5-dihydro-1H-pyrazole-1-carbonothioyl)benzamide]

IC50 (α-amylase): 114.6 ± 0.28 µM
Compound: Cc1ccc(C(=O)N(C(=O)c2ccc(C)cc2)C(=S)N2N=C(c3ccc(C)cc3)CC2c2ccc(F)cc2)cc1 (stereo not shown) [Compound 5i, N-(5-(4-Fluorophenyl)-3-(p-tolyl)-4,5-dihydro-1H-pyrazole-1-carbonothioyl)-4-methyl-N-(4-methylbenzoyl)benzamide]

IC50 (α-amylase): 110 ± 1.56 µM
Compound: Cc1ccc(C(=O)N(C(=O)c2ccc(C)cc2)C(=S)N2N=C(c3ccc(C)cc3)CC2c2ccc(Cl)cc2)cc1 (stereo not shown) [Compound 5j, N-(5-(4-Chlorophenyl)-3-(p-tolyl)-4,5-dihydro-1H-pyrazole-1-carbonothioyl)-4-methyl-N-(4-methylbenzoyl)benzamide]

Compound: NC[C@H]1O[C@H](O[C@H]2[C@H](O)[C@@H](O[C@H]3O[C@H](CO)[C@@H](O)[C@H](N)[C@H]3O)[C@H](N)C[C@@H]2N)[C@H](O)[C@@H](O)[C@@H]1O [Kanamycin, reference compound]
Antibacterial zone of inhibition, Escherichia coli (Escherichia coli): 16 mm | Antibacterial zone of inhibition, Pseudomonas aeruginosa (Pseudomonas aeruginosa): 20 mm | Antibacterial zone of inhibition, Bacillus subtilis (Bacillus subtilis): 22 mm | Antibacterial zone of inhibition, Staphylococcus aureus (Staphylococcus aureus): 18 mm

Compound: CN(C/C=C/C#CC(C)(C)C)Cc1cccc2ccccc12 [Terbinafine]
zone of inhibition at 10 µM (Candida albicans): 20 mm

Compound: NC(N)=S [Thiourea]
IC50 (urease): 9.8 ± 0.1 µM
